From patent publication US6126909A, “Process and apparatus for the production of BI-212 and a use thereof” (Arch Development Corporation, priority 1999, dated 2000)

Test: Estimated radiation dose in humans
Parameters: species or system human; Gamma dose/100 mCi / Alpha dose/100 mCi / Total dose: unit: cGy
Conditions: for Total dose / Calculated alpha dose / Calculated gamma dose: 100 mCi
From the text: Based upon the in vivo studies, a contemplated dose of 100 mCi to a human produces an alpha and gamma dose to any organ of less than 150 cGy. The calculated alpha dose to the gastrointestinal tract, liver and kidneys is 87.7, 24.6 and 92.5 cGy, respectively, and the calculated gamma dose is 7.39, 4.14 and 5.00 cGy, respectively. Table 9, below, provides the estimated total dose in humans based upon an initial dose of 100 mCi of Bi-212.

In the case of `[212Bi]` [Bi-212, bismuth-212], the “Alpha dose/100 mCi” value (GI tract) is reported as 87.7, the “Gamma dose/100 mCi” value (GI tract) is reported as 7.39 and the Total dose (GI tract) is reported as 95.1. The “Alpha dose/100 mCi” value (brain) was 2.45, the “Gamma dose/100 mCi” value (brain) was 0.038 and the Total dose (brain) was 2.49. The “Alpha dose/100 mCi” value (breasts) was 2.45, the “Gamma dose/100 mCi” value (breasts) was 0.643 and the Total dose (breasts) was 3.09. The “Alpha and gamma dose to any organ” value (contemplated dose of 100 mCi to a human) was “less than 150 cGy”, the Calculated alpha dose (gastrointestinal tract) was 87.7 cGy and the Calculated gamma dose (gastrointestinal tract) was 7.39 cGy. For the same compound, the “Alpha dose/100 mCi” value (kidneys) was 92.5, the “Gamma dose/100 mCi” value (kidneys) was 5.00 and the Calculated alpha dose (kidneys) was 92.5 cGy. The Calculated gamma dose (kidneys) was 5.00 cGy, the Total dose (kidneys) was 97.5 and the “Alpha dose/100 mCi” value (liver) was 24.6. For the same compound, the “Gamma dose/100 mCi” value (liver) was 4.14, the Calculated alpha dose (liver) was 24.6 cGy and the Calculated gamma dose (liver) was 4.14 cGy. The Total dose (liver) was 28.7, the “Alpha dose/100 mCi” value (lungs) was 2.45 and the “Gamma dose/100 mCi” value (lungs) was 1.33. For the same compound, the Total dose (lungs) was 3.78, the “Alpha dose/100 mCi” value (ovaries) was 102.4 and the “Gamma dose/100 mCi” value (ovaries) was 5.42. For the same compound, the Total dose (ovaries) was 107.8, the “Alpha dose/100 mCi” value (pancreas) was 2.45 and the “Gamma dose/100 mCi” value (pancreas) was 17.2. The Total dose (pancreas) was 19.7, the “Alpha dose/100 mCi” value (red marrow) was 2.45 and the “Gamma dose/100 mCi” value (red marrow) was 2.30. For the same compound, the Total dose (red marrow) was 4.75, the “Alpha dose/100 mCi” value (remainder) was 2.45 and the “Gamma dose/100 mCi” value (remainder) was 1.78. For the same compound, the Total dose (remainder) was 4.23, the “Alpha dose/100 mCi” value (thyroid) was 2.45 and the “Gamma dose/100 mCi” value (thyroid) was 0.154. For the same compound, the Total dose (thyroid) was 2.60, the “Alpha dose/100 mCi” value (total body) was 2.45 and the “Gamma dose/100 mCi” value (total body) was 1.83. For the same compound, the Total dose (total body) was 4.28, the “Alpha dose/100 mCi” value (uterus) was 102.4 and the “Gamma dose/100 mCi” value (uterus) was 21.2. The Total dose (uterus) was 123.6.
